What was measured:
[1] = tested on: Plutella xylostella (Diamond back moth) ryanodine receptor, containing the G4946E resistance mutation; assay: In vitro calcium fluorescence assay (Fluo-8 NW, FDSS) in human embryonic kidney cells expressing the ryanodine receptor; assay type: cell-based; conditions: table; EC50 (compound)/EC50 (cyantraniliprole); G4946E RyR in HEK cells
In short: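 Fluo-8 NW-loaded cells, compounds at 10 rates, intracellular calcium fluorescence read on FDSS. EC50 from dose-response curves, normalized to in-assay cyantraniliprole as REC50 = EC50(compound)/EC50(cyantraniliprole).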

[2] = tested on: Resistant Plutella xylostella R4 (carries the RyR mutation G4946E); assay: Resistant Plutella xylostella R4 (Diamond back moth) larvicide L1, feeding/contact, artificial diet in 24-well plates; assay type: in vivo; conditions: Plutella xylostella, 192 h, read-out: control of the resistant strain of Plutella xylostella R4
Procedure: Resistant Plutella xylostella R4 (Diamond back moth) larvicide L1, feeding/contact 24-well microtiter plates with artificial diet were treated with aqueous test solutions prepared from 10′000 ppm DMSO stock solutions by pipetting. After drying, around 30 Plutella eggs were pipetted through a plastic stencil onto a gel blotting paper and the plate was closed with it. The samples were assessed for mortality in comparison to untreated samples 8 days after infestation.
Chlorantraniliprole was used as standard and a resistance factor of 242 was obtained for this strain
Plutella xylostella resistant strain R4 originated in the lab in 2021 from crossing the R1 strain with a lab-reared susceptible P. xylostella strain (SUS). R4 can be reared and tested on artificial diet and also carries the RyR mutation G4946E conferring resistance to diamides. The strain is selected approximately every two weeks with chlorantraniliprole. The following compounds, according to the present invention, gave at least 80% control of the resistant strain of Plutella xylostella R4 at 50 ppm or below: P11, P18, P26, P31, P33, P34, P36, P38, P42, P43, P46, P49, P50, P52, P56, P58, P60, P61, P63, P64, P65, P66, P67, P73, P76, P84, P97, P99, P102, P105.

[3] = tested on: Resistant Plutella xylostella R1 (multi-resistant larvae having the G4946E resistance mutation); assay: Resistant Plutella xylostella R1 (Diamond back moth) larvicide L3, feeding/contact, sprayed Chinese cabbage leaves; assay type: in vivo; conditions: Plutella xylostella, 96 h, read-out: control of the resistant strain of Plutella xylostella R1

Row | melting point | SMILES | further results
1 | 135 to 140 °C | NC(=O)c1cc(Br)cc(Cl)c1NC(=O)c1cc(Cn2cc(C(F)(F)F)nn2)nn1-c1ncccc1Cl | 
2 | > 250 °C | NC(=O)c1cc(Cl)cc(Br)c1NC(=O)c1cc(Cn2cc(C(F)(F)F)nn2)nn1-c1ncccc1Cl | 
3 | 155 to 160 °C | Cc1cc(I)cc(C(N)=O)c1NC(=O)c1cc(C(F)F)nn1-c1ncccc1Cl | 
4 | 225 to 230 °C | Cc1cc(Cl)cc(C(N)=O)c1NC(=O)c1cc(C2(F)CC2)nn1-c1ncccc1Cl | 
5 | 125 to 130 °C | Cc1cc(Cl)cc(C(N)=O)c1NC(=O)c1cc(C[S+](C)[O-])nn1-c1ncccc1Cl (stereo not drawn) | 
6 | 187 to 198 °C | Cc1cc(Cl)cc(C(N)=O)c1NC(=O)c1cc(Br)nn1-c1ncccn1 | 
7 | 140 to 145 °C | Cc1cc(Cl)cc(C(N)=O)c1NC(=O)c1cc(CS(C)(=O)=O)nn1-c1ncccc1Cl | 
8 | 225 to 230 °C | COCc1cc(C(=O)Nc2c(C)cc(Cl)cc2C(N)=O)n(-c2ncccc2Cl)n1 | 
9 | 109 to 112 °C | Cc1cc(C#N)cc(C(N)=O)c1NC(=O)c1cc(COCc2ccc(Cl)cc2)nn1-c1ncccc1Cl [Compound P12, N-(2-carbamoyl-4-cyano-6-methyl-phenyl)-5-[(4-chlorophenyl)methoxymethyl]-2-(3-chloro-2-pyridyl)pyrazole-3-carboxamide] | 
10 | 190 to 195 °C | Cc1cc(Br)cc(C(N)=O)c1NC(=O)c1cc(Cn2cc(C(F)(F)F)nn2)nn1-c1ncccc1Cl [Compound P35, N-(4-bromo-2-carbamoyl-6-methyl-phenyl)-2-(3-chloro-2-pyridyl)-5-[[4-(trifluoromethyl)triazol-1-yl]methyl] pyrazole-3-carboxamide] | 
11 | 185 to 190 °C | NC(=O)c1cc(Br)cc(Cl)c1NC(=O)c1cc(Cn2ncc(C(F)(F)F)n2)nn1-c1ncccc1Cl [Compound P37, N-(4-bromo-2-carbamoyl-6-chloro-phenyl)-2-(3-chloro-2-pyridyl)-5-[[4-(trifluoromethyl)triazol-2-yl]methyl]pyrazole-3-carboxamide] | 
12 | > 250 °C | Cc1cc(Br)cc(C(N)=O)c1NC(=O)c1cc(I)nn1-c1ncccc1Cl [Compound P39, N-(4-bromo-2-carbamoyl-6-methyl-phenyl)-2-(3-chloro-2-pyridyl)-5-iodo-pyrazole-3-carboxamide] | 
13 | 110 to 115 °C | NC(=O)c1cc(Br)cc(F)c1NC(=O)c1cc(Cn2nnc(C(F)(F)F)n2)nn1-c1ncccc1Cl [Compound P41, N-(4-bromo-2-carbamoyl-6-fluoro-phenyl)-2-(3-chloro-2-pyridyl)-5-[[5-(trifluoromethyl)tetrazol-2-yl]methyl]pyrazole-3-carboxamide] | 
14 | 205 to 210 °C | COc1cc(C(=O)Nc2c(Br)cc(Cl)cc2C(N)=O)n(-c2ncccc2Cl)n1 [Compound P55, N-(2-bromo-6-carbamoyl-4-chloro-phenyl)-2-(3-chloro-2-pyridyl)-5-methoxy-pyrazole-3-carboxamide] | 
15 | 180 to 185 °C | Cc1cc(Cl)cc(C(N)=O)c1NC(=O)c1cc(CC#N)nn1-c1ncccc1Cl [Compound P70, N-(2-carbamoyl-4-chloro-6-methyl-phenyl)-2-(3-chloro-2-pyridyl)-5-(cyanomethyl)pyrazole-3-carboxamide] | 
16 | 225 to 230 °C | Cc1cc(Cl)cc(C(N)=O)c1NC(=O)c1cc(C2(C#N)CC2)nn1-c1ncccc1Cl [Compound P72, N-(2-carbamoyl-4-chloro-6-methyl-phenyl)-2-(3-chloro-2-pyridyl)-5-(1-cyanocyclopropyl)pyrazole-3-carboxamide] | 
17 |  | Cc1cc(Cl)cc(C(N)=O)c1NC(=O)c1cc(C2CC2)nn1-c1ncccc1Cl [Compound P76, N-(2-carbamoyl-4-chloro-6-methyl-phenyl)-2-(3-chloro-2-pyridyl)-5-cyclopropyl-pyrazole-3-carboxamide] | REC50 (Compound of the invention) [1]: 0.42; pest or weed control at 50 µg/mL [2]: ≥ 80%; pest or weed control at 50 µg/mL [3]: ≥ 80%
18 | 175 to 180 °C | CSCc1cc(C(=O)Nc2c(C)cc(Cl)cc2C(N)=O)n(-c2ncccc2Cl)n1 [Compound P79, N-(2-carbamoyl-4-chloro-6-methyl-phenyl)-2-(3-chloro-2-pyridyl)-5-(methylsulfanylmethyl)pyrazole-3-carboxamide] | 

Row | SMILES | melting point | further results
19 | Cc1cc(Cl)cc(C(N)=O)c1NC(=O)c1cc(COCc2ccc(Cl)cc2)nn1-c1ncccc1Cl [Compound P5, N-(2-carbamoyl-4-chloro-6-methyl-phenyl)-5-[(4-chlorophenyl)methoxymethyl]-2-(3-chloro-2-pyridyl)pyrazole-3-carboxamide] | 174 to 176 °C | REC50 (Compound of the invention) [1]: 0.31
20 | COc1cc(C(=O)Nc2c(C)cc(Br)cc2C(N)=O)n(-c2ncccc2Cl)n1 [Compound P45, N-(4-bromo-2-carbamoyl-6-methyl-phenyl)-2-(3-chloro-2-pyridyl)-5-methoxy-pyrazole-3-carboxamide] | 210 to 215 °C | REC50 (Compound of the invention) [1]: 0.24
21 | COc1cc(C(=O)Nc2c(Cl)cc(Br)cc2C(N)=O)n(-c2ncccc2Cl)n1 [Compound P47, N-(4-bromo-2-carbamoyl-6-chloro-phenyl)-2-(3-chloro-2-pyridyl)-5-methoxy-pyrazole-3-carboxamide] | 160 to 165 °C | REC50 (Compound of the invention) [1]: 0.61
22 | COc1cc(C(=O)Nc2c(Cl)cc(Cl)cc2C(N)=O)n(-c2ncccc2Cl)n1 [Compound P59, N-(2-carbamoyl-4,6-dichloro-phenyl)-2-(3-chloro-2-pyridyl)-5-methoxy-pyrazole-3-carboxamide] | 155 to 160 °C | REC50 (Compound of the invention) [1]: 0.62
23 | CCc1cc(C(=O)Nc2c(C)cc(Cl)cc2C(N)=O)n(-c2ncccc2Cl)n1 [Compound P75, N-(2-carbamoyl-4-chloro-6-methyl-phenyl)-2-(3-chloro-2-pyridyl)-5-ethyl-pyrazole-3-carboxamide] | 245 to 250 °C | REC50 (Compound of the invention) [1]: 0.69
